Where “and” joins values, the source holds several entries; their conditions need not be identical. Identical values can stand only once.
Test system: CEM cells
Test: Non-targeted LC-MS metabolite profiling: percent [13C6]glucose labeling and relative metabolite levels
Format: cell-based, human
Settings: CEM cells, 12 h following release from G1 arrest, replicates #1-#6
Source text: To further investigate the functions of dCK and ATR at the G1/S transition in CEM cells, a non-targeted liquid chromatography mass spectrometry (LC-MS) assay was used to determine the utilization of labeled [^13C6]glucose and [^13C9,^15N3]deoxycytidine, the main substrates for de novo and salvage nucleotide biosynthesis, respectively. Of the 166 metabolites identified in CEM cells treated with VE-822 and/or dCKi, 105 metabolites found in all four treatment groups contained glucose-derived ^13C atoms. […] These metabolites included intermediates such as rUTP, rCTP and rCDP in the de novo dCTP biosynthesis (Fig. 1d). […] However, several deoxyribonucleotides, including dCTP, were below the limit of detection of the non-targeted LC-MS approach, raising the concern that the sensitivity of this assay is not sufficient to measure the contribution of the salvage pathway or the ratio of de novo and salvage biosynthesis to these pools. To address this problem, a newly developed targeted MS assay was developed (Fig. 1e and Supplementary Fig. 3). In this assay, samples containing either extracted dNTPs or hydrolyzed DNA from labeled cells are separated by LC for detection by a triple quadrupole mass spectrometer using multiple reaction monitoring (LC-MS/MS-MRM). The first (Q1) and third (Q3) quadrupoles function as mass filters, while the second (Q2) quadrupole serves as a collision chamber (Fig. 1e). For instance, to profile the biosynthetic composition of deoxycytidine (dC) derived from hydrolyzed DNA or dCTP, an intact, protonated dC ion is selected in Q1, followed by fragmentation of the glycosidic bond, which releases protonated cytosine in Q2, that is filtered in Q3 and detected to generate an ion chromatogram. The peak areas for the ion chromatograms of salvage [^13C9,^15N3]dC (red trace), de novo [^13C5]dC (black trace, from [^13C6]glucose) and unlabeled dC (gray trace) (Fig. 1e) are used to determine the relative contributions of the de novo and salvage routes both to dCTP pools and to DNA-incorporated dCTP.
Cells were transferred into RPMI-1640 without glucose and supplemented with 10% dialyzed FBS (Gibco) containing the following labeled substrates: precursors for de novo [U-^13C6]glucose (Sigma-Aldrich, 389374) at 11 mM; precursors for purine salvage [U-^13C10,^15N5]dA (Cambridge Isotopes, CIL 3896), [^15N5]dA (Cambridge Isotopes, NLM-3895) and [^15N5]dG (Cambridge Isotopes, NLM-3899) at 5 µM or as indicated; and precursors for pyrimidine salvage: [U-^13C9,^15N3]dC (Silantes, 124603602) and [U-^13C10,^15N2]dT (Cambridge Isotopes, CNLM-3902) at 5 µM and [^15N2]orotate (Cambridge Isotopes, NLM-1048) at indicated concentrations. The cells were incubated for 12 h or as indicated before sample collection and processing. […]
Non-targeted LC-MS metabolic assays. 1 x 10^6 cells were washed with ice-cold 150 mM ammonium acetate twice before adding 1 mL of ice-cold 80% methanol with 10 nM norvaline as an internal standard. After vigorous vortexing, samples were centrifuged at maximum speed, the aqueous layer was transferred to a glass vial and the metabolites were dried under vacuum. Metabolites were resuspended in 50 μL 70% acetonitrile (ACN) and 5 μL of this solution used for the mass spectrometer-based analysis. The analysis was performed on a Q Exactive (Thermo Scientific) in polarity-switching mode with positive voltage 4.0 kV and negative voltage 4.0 kV. The mass spectrometer was coupled to an UltiMate 3000RSLC (Thermo Scientific) UHPLC system. Mobile phase A was 5 mM ammonium acetate (NH4AcO), pH 9.9, B was acetonitrile and the separation achieved on a Luna […] NH2 100 A column (150 × 2.0 mm, Phenomenex). The flow was 200 μL/min, and the gradient ran from 15% A to 95% A in 18 min, followed by an isocratic step for 9 min and re-equilibration for 7 min. Metabolites were detected and quantified as area under the curve based on retention time and accurate mass (≤ 3 p.p.m.) using the TraceFinder 3.1 (Thermo Scientific). Relative amounts of […]

[1] = metabolite CDP (KEGG C00112), listed as D
[2] = metabolite CDP-EtA (KEGG C00570), listed as D
[3] = metabolite CMP (KEGG C00055), listed as D
[4] = metabolite CTP (KEGG C00063), listed as D
[5] = metabolite Choline (KEGG C00114), listed as D
[6] = metabolite Cinnamic acid (KEGG C00423), listed as D
[7] = metabolite Cit (KEGG C00158), listed as D
[8] = metabolite Creatine (KEGG C00300), listed as D
[9] = metabolite Creatinine (KEGG C00791), listed as D
[10] = metabolite Cytosine (KEGG C00380), listed as D
[11] = metabolite DMG (KEGG C01026), listed as D
[12] = metabolite Dihydroorotate (KEGG C00337), listed as D
[13] = metabolite F16BP (KEGG C00354), listed as D
[14] = metabolite Folate (KEGG C00504), listed as D
[15] = metabolite Fru (KEGG C00095), listed as D
[16] = metabolite Fum (KEGG C00122), listed as D
[17] = metabolite G (KEGG C00387), listed as D
[18] = metabolite dG (KEGG C00330), listed as D

## COc1ccc(-c2nc([C@@H](C)Sc3nc(N)cc(N)n3)c(C)s2)cc1OCCNS(C)(=O)=O [dCKi]
[1]
  Glucose labeling of CDP: 77.96% and 72.97% and 80.28% and 0.44% and 79.17% and 76.50%
  Relative level of CDP: 0.5 and 1.3 and 2.1 and 0.0678 and 0.334 and 0.7
[2]
  Glucose labeling of CDP-EtA: 70.01% and 72.58% and 83.31% and 72.60% and 75.82% and 67.23%
  Relative level of CDP-EtA: 0.9 (4×) and 1.4 and 1.0
[3]
  Glucose labeling of CMP: 71.05% and 65.79% and 64.24% and 62.92% and 70.94% and 75.98%
  Relative level of CMP: 1.0 and 0.663 and 1.8 and 0.2 and 0.366 and 0.8
[4]
  Glucose labeling of CTP: 81.19% and 79.64% and 75.43% and 84.05% and 71.54% and 81.90%
  Relative level of CTP: 0.345 and 0.9 and 1.2 and 0.0446 and 0.234 and 0.445
[5]
  Glucose labeling of Choline: 0.00256% and 0.00252% and 0.00247% (2×) and 0.00241% and 0.00245%
  Relative level of Choline: 1.1 and 1.3 (2×) and 0.842 and 0.8 (2×)
[6]
  Glucose labeling of Cinnamic acid: 0.00% (5×) and 1.11e-14%
  Relative level of Cinnamic acid: 1.2 and 1.3 and 1.6 and 0.8 (2×) and 0.7
[7]
  Glucose labeling of Cit: 50.63% and 52.82% and 53.30% and 41.63% and 44.16% and 45.64%
  Relative level of Cit: 0.8 and 1.3 and 1.4 and 0.367 and 0.6 and 0.7
Metabolite Citraconic acid (KEGG C02226)
  Glucose labeling of Citraconic acid: 0.00%
Metabolite Citraconic acid (KEGG C02226), listed as D
  Relative level of Citraconic acid: 1.1 and 1.0 (2×) and 1.3 and 0.645 and 0.9
Metabolite Citrulline (KEGG C00327)
  Glucose labeling of Citrulline: 0.18%
Metabolite Citrulline (KEGG C00327), listed as D
  Relative level of Citrulline: 2.2 and 0.259 and 0.529 and 0.8 and 0.4 and 0.527
[8]
  Glucose labeling of Creatine: 0.000817% and 0.00101% and 2.36e-6% and 0.000311% and 0.000285% and 0.000183%
  Relative level of Creatine: 1.0 (4×) and 1.1 (2×)
[9]
  Glucose labeling of Creatinine: 0.000768% and 0.000756% and 0.000758% and 0.000811% and 0.00078% and 0.000884%
  Relative level of Creatinine: 1.2 and 0.952 and 1.0 (2×) and 0.8 and 0.9
Metabolite Cystathionine (KEGG C02291)
  Glucose labeling of Cystathionine: 0.26%
Metabolite Cystathionine (KEGG C02291), listed as D
  Relative level of Cystathionine: 1.9 (2×) and 1.8 and 0.9 and 0.634 and 0.644
[10]
  Glucose labeling of Cytosine: 0.000526% and 0.000773% and 0.000656% and 0.000291% and 0.000873% and 0.0323%
  Relative level of Cytosine: 1.6 and 0.8 and 1.1 (2×) and 1.4 and 2.5
Metabolite DHAP (KEGG C00111)
  Glucose labeling of DHAP: 100.00%
  Relative level of DHAP: 0.162
[11]
  Glucose labeling of DMG: 0.05% and 0.06% and 0.000349% and 0.02% and 0.0219% and 0.03%
  Relative level of DMG: 1.0 (2×) and 1.3 (2×) and 1.4 and 1.1
[12]
  Glucose labeling of Dihydroorotate: 2.31% and 4.79% and 3.17% and 1.21% and 1.28% and 0.88%
  Relative level of Dihydroorotate: 1.8 and 2.4 and 1.6 and 0.556 and 0.665 and 0.641
[13]
  Glucose labeling of F16BP: 45.03% and 62.70% and 85.32% and 37.47% and 50.53% and 49.36%
  Relative level of F16BP: 0.184 and 0.186 and 0.7 and 0.137 and 0.132 and 0.115
[14]
  Glucose labeling of Folate: 100.00% and 0.00% (4×) and 1.11e-14%
  Relative level of Folate: 1.8 and 6.1 and 0.8 and 0.376 and 0.9
[15]
  Glucose labeling of Fru: 17.52% and 38.15% and 34.20% and 21.41% and 18.03% and 26.54%
  Relative level of Fru: 1.5 and 0.6 and 0.8 and 1.0 and 1.4 and 0.9
[16]
  Glucose labeling of Fum: 15.19% and 16.91% and 18.53% and 8.92% and 13.71% and 14.45%
  Relative level of Fum: 0.9 and 1.0 and 1.4 and 0.443 and 0.654 and 0.7
[17]
  Glucose labeling of G: 100.00% (3×) and 0.55% (3×)
  Relative level of G: 1.4 and 0.8 and 0.9
Metabolite dATP (KEGG C00131)
  Glucose labeling of dATP: 100.00%
Metabolite dATP (KEGG C00131), listed as D
  Relative level of dATP: 0.743 and 1.0
Metabolite dCTP (KEGG C00458)
  Glucose labeling of dCTP: 100.00%
Metabolite dCTP (KEGG C00458), listed as D
  Relative level of dCTP: 1.0 and 0.8 and 1.2
[18]
  Glucose labeling of dG: 0.40% and 0.52% and 0.55% and 0.48% and 0.47% and 0.42%
  Relative level of dG: 1.5 and 0.9 (2×) and 1.1 and 0.8 (2×)
Metabolite dGDP (KEGG C00361)
  Glucose labeling of dGDP: 100.00%
  Relative level of dGDP: 0.0
Metabolite dTMP (KEGG C00364)
  Glucose labeling of dTMP: 100.00%
Metabolite dTMP (KEGG C00364), listed as D
  Relative level of dTMP: 1.6 (2×) and 1.0 and 2.4
Metabolite dTTP (KEGG C00459)
  Glucose labeling of dTTP: 100.00%
Metabolite dTTP (KEGG C00459), listed as D
  Relative level of dTTP: 1.6 and 3.4 and 1.3
  Glucose labeling, Lys: 0.00%
  Glucose labeling, NAD+: 0.00%
  Glucose labeling, Nicotinamide: 0.00%
  Glucose labeling, P-Creatine: 0.0737%
  Glucose labeling, P-EtA: 0.0123%
  Glucose labeling, PEP: 100.00%
  Glucose labeling, Phe: 0.00%
  Glucose labeling, Pipecolate: 0.00%
  Glucose labeling, Pyr: 100.00%
  Glucose labeling, Thr (C00188): 0.00%
  Glucose labeling, Trigonelline (C01004): 0.00%

Source: publication PMC5556071, “ATR inhibition facilitates targeting of leukemia dependence on convergent nucleotide biosynthetic pathways” (Nature Communications, 2017)
